Where two headings read alike, the source gives them in different places.
Legend:
[1] = pH 7.4 phosphate buffer solution, cited from earlier work; for ΦT triplet quantum yield: previously reported values
[2] = Femtosecond broadband transient absorption spectroscopy of the thiothymine series (intersystem crossing, triplet yield); assay type: physicochemical
Method: Femtosecond transient absorption spectroscopy was performed using a Ti— Sapphire regenerative amplifier laser system (Libra-HE, Coherent, Inc.; 800 nm, 100 fs, 4.0 W at 1 kHz). 2.6 W of the 800 nm beam were used to pump an optical parametric amplifier (TOPAS, Quantronix/Light Conversion) to generate the excitation beam at selected wavelengths of 320, 335, and 360 nm. Contributions to the excitation beam from other wavelengths and polarizations were removed by a reflective wavelength filter (λ-filter) and a Glan-Taylor polarizer, respectively, and the polarization was randomized using a depolarizing plate in order to prevent rotational effects from contributing to the dynamics, as described in details elsewhere.
A Helios spectrometer (Ultrafast Systems, LLC.) was used for pump-probe measurements. A fraction of the fundamental (800 nm) beam from the Libra-HE was used to generate white light continuum (WLC). The Helios spectrometer uses an optical delay line with a maximum delay of ˜3 ns for the 800 nm beam, which was used to pump a continuously-moving 2 mm CaF2 plate for generation of the WLC broadband probe pulse covering the spectral range from ˜320-700 nm. The probe light was then passed through a 730 nm low-pass dichroic optical filter, so as to block residual fundamental beam and to avoid saturating the complementary metal-oxide-semiconductor (CMOS) detectors. The probe pulse was then split into two beams, both of which were recollimated and focused into the optical fibers leading to their respective CMOS detectors. In this setup, one of the beams serves as reference, while the other is used to probe the sample of interest. A synchronized chopper wheel was used to block every other pump pulse, such that the difference in absorption between two consecutive measurements gives the transient spectrum. The excitation beam was attenuated to 1 μJ/pulse at the sample using a neutral density optical filter before entering the spectrometer. The excitation pulse was focused to a beam diameter three times larger than that of the probe beam at the sample position. Detection time windows of 20 and 200 ps were used in this work.
All solutions were prepared using pH 7.4 aqueous phosphate buffer, with a total phosphate concentration of 16 mM. The solution was continuously stirred in a 2 mm optical path length quartz cell (Starna Cells, Inc.) using a Teflon-coated magnetic stirring bar so as to bring fresh sample to the pump-probe region for each measurement. The solution in the cuvette was replaced with a fresh sample, from the same stock solution, every 5-7 scans, so that all scans had no more than 5% decrease in absorbance at the lowest-energy absorption-band maximum as determined by steady-state absorption spectroscopy.
All broadband transient absorption data were corrected for group velocity dispersion (GVD) of the WLC using a home-made LabView program (National Instruments, Inc.) as previously described. 3 Analysis of transient absorption kinetics was performed in Igor Pro 6.32A (WaveMetrics, Inc.) using the target analysis method, as described previously, and a sequential kinetic model convoluted with an instrument response function of ˜200 fs (FWHM). The instrument response was determined from the coherence signal of neat methanol generated at the sample cell. Global fitting analysis was performed using 15 to 30 representative kinetic traces covering the full range of probe wavelengths. At least three independent datasets (i.e., recorded on three different days) were used in the analysis and all uncertainties are reported as twice the standard deviation of the average lifetime. Decay associated spectra shown in FIG. 7A were extracted from the global fitting analysis of the transient decay traces taken every third probe wavelength across the entire WLC range.

[3] = O2-saturated acetonitrile solution; previously measured / standard value; cited from earlier work
[4] = Femtosecond to microsecond transient absorption spectroscopy of the thiouracil series (intersystem crossing, triplet yield, triplet decay, triplet-triplet extinction)
Source text: Briefly, 800 nm, 100 fs fundamental pulses were generated with a Ti-Sapphire regenerative amplifier laser system (Libra-HE, Coherent, Inc.: 4.0 W, 1 kHz). The fundamental beam was used to produce pump wavelengths of 320, 335, and 350 nm via an optical parametric amplifier (TOPAS, Quantronix/Light Conversion). Unwanted wavelengths were removed from the pump beam using a reflective wavelength filter and a Glan-Taylor polarizer. A fraction of the remaining fundamental beam was focused into a continuously moving CaF2 plate (2 mm thick) to generate broadband white light probe pulses (320-700 nm). The intensity of the excitation beam was attenuated to 1 mJ per pulse at the sample position. The polarization of the pump beam was randomized before being focused into the sample to overlap with the white light continuum probe at a 3:1 beam diameter ratio. Pump-probe experiments were collected using a Helios spectrometer (Ultrafast Systems, LLC) and a home-made data acquisition software (LabView, National Instruments, Inc.).
Solutions of the 2tUra, 4tUra, and 2,4dtUra derivatives were prepared in aqueous phosphate-buffered saline at pH 7.4. […] Solutions were investigated in 2 mm optical path length quartz cells and the irradiated volume was continuously refreshed by stirring with a Teflon-coated magnetic stir bar. Contributions to the transient data from any putative photoproduct formation were prevented by replacing the solution with fresh stock solution every 5 scans, or before 6% sample degradation (as monitored by a decrease in the steady-state absorbance of the lowest-energy absorption band). The UVA excitation wavelength used was varied depending on the absorption spectrum of the specific thiouracil derivative investigated. For 2tUra, an excitation wavelength of 320 nm was used, whereas 2,4dtUra was excited at 335 and 350 nm, and 4tUra was excited at all three of these UVA wavelengths.
Decay of the triplet state of 4tUra and 2,4dtUra to the ground state was monitored using the same excitation and detection setups but probing with an electronically triggered broadband white light source (Eos, Ultrafast Systems, LLC) that has been conveniently integrated into the Helios spectrometer. This probe source has a spectral window from B375 to 800 nm, a time resolution of about 400 ps, and a temporal window of up to 120 ms. […] Data were collected with the solutions under a constant nitrogen flow, and exciting at 350 nm with 3 mJ per pulse for 10 min, corresponding to less than 5% degradation.
For each data set, between 50 and 100 traces were selected across the entire range of probe wavelengths and globally analyzed in Igor Pro 6.32A (WaveMetrics, Inc.). […] 83 The uncertainties reported for the triplet population lifetimes are twice the standard deviation from the average fitting of at least three independent datasets (i.e., recorded on three different days). Triplet-triplet absorption spectra were extracted from the global fitting analysis.

[5] = cited from earlier work
[6] = Singlet oxygen quantum yield by phosphorescence at 1270 nm, thiouracil series; assay type: physicochemical
Method: Solutions of 4tUra, 2,4dtUra, and the singlet oxygen standard (phenalenone; ΦΔ=0.98) were prepared in acetonitrile, each with an absorbance of 0.3 at 355 nm in a 1×1 cm quartz cuvette. The solutions were purged with oxygen for 30 min, followed by the determination of quantum yields from back-toback measurements of the singlet oxygen phosphorescence intensity at 1270 nm. The O2-saturated solutions were excited at 355 nm (Spectra Physics GCR-150-30: 7 ns pulse width) and the phosphorescence at 1270 nm was detected with a NIR sensitive photomultiplier tube (H10330A-45, Hamamatsu).
The singlet oxygen (^1O2) quantum yields of 4tUra and 2,4dtUra were measured by monitoring the characteristic phosphorescence of ^1O2 at 1270 nm with nanosecond time resolution.

[7] = tested on: adenosine 5′-monophosphate (5′-AMP); test: Photoreactivity with adenosine 5′-monophosphate upon 365 nm irradiation in N2-saturated buffer; details: with 5′-AMP, 1:5 molar ratio (24 and 120 mM); 365 nm irradiation; N2-saturated aqueous buffer pH 7.4
Method: Aqueous phosphate-buffered saline solutions, pH 7.4, containing either 4tUra or 2,4dtUra were prepared with and without 5′-AMP and loaded into 1×1 cm septum-top quartz cuvettes. The concentrations of the thiouracil derivatives and 5′-AMP were […], respectively. These concentrations were chosen in order to favor the bimolecular photoreaction between the thiouracil derivative and 50-AMP, while simultaneously maintaining the absorbance of the solutions within the linear dynamic range limit of the UV-visible spectrophotometer used. All solutions were purged with ultrapure nitrogen for 30 min and kept under constant nitrogen flow throughout the irradiation period. An optical parametric amplifier (TOPAS, Quantronix/Light Conversion) pumped by our Libra laser system (described above) was used for monochromatic (±1 nm) irradiation of the samples. […] Absorbance changes in the thiouracil solutions, with and without 5′-AMP, were monitored periodically using UV-visible spectroscopy (Cary 100 Bio) during irradiation at 365 nm for up to 90 min and while stored in the dark for up to three and a half days.
In order to scrutinize the light-induced reactivity of these sensitizers toward biomolecules, aqueous phosphate-buffered saline solutions of either 4tUra or 2,4dtUra were prepared in the presence of the RNA monomer adenosine 5′-monophosphate (5′-AMP) at a 1:5 molar ratio. […] The experimental conditions were chosen in order to facilitate the extraction of relative photoreaction rates from the changes in the steady-state absorption spectra with irradiation time. […]

[8] = Steady-state absorption spectroscopy, thymine series; assay type: physicochemical; details: phosphate buffer solution at pH 7.4
Source text: 2-thiothymine (2tThy, 98% purity) was obtained from AK Scientific, 4-thiothymidine (4tThd, 99% purity) was obtained from Carbosynth Ltd., and 2-thiothymidine (2tThd) and 2,4-dithiothymine (2,4dtThy) were obtained from Sigma Aldrich. All compounds were used as received. The purity of these compounds was ensured by using fluorescence spectroscopy and by comparison with the published absorption maxima and their corresponding extinction coefficients. Phosphate buffer solutions were freshly prepared using 0.12 g of sodium dihydrogen phosphate and 0.089 g of disodium hydrogen phosphate dissolved in 100 mL of ultrapure water and adjusted to pH 7.4 using a 2 M NaOH solution. Steady-state absorption spectra were measured using a Cary 100 Bio spectrometer. All absorption spectra were corrected for the solvent background by subtraction of the absorption of the solvent.
Specifically, sulfur substitution of the C2 carbonyl in thymine results in about a 10 nm redshift in the absorption maximum, whereas substitution at the C4 position results in a redshift of about 70 nm. Remarkably, double-substitution results in about a 100 nm redshift of the lowest-energy absorption band of thymidine (ΔE=9905 cm^−1), without an appreciable change in the magnitude of the extinction coefficient at the corresponding wavelengths (1×10^4 M^−1 cm^−1). Replacement of an oxygen atom by a sulfur atom in a carbonyl bond is expected to shift the absorption spectrum to the red because the thiocarbonyl is weaker than the carbonyl bond and the excited electronic states in thiocarbonyl compounds are typically found at lower energies. However, the difference in bond strengths between a carbonyl and thiocarbonyl bond cannot solely explain the large spectral shift observed between 2tThy/2tThd and 4tThd. Furthermore, the redshift in the absorption spectrum of 2,4dtThy cannot simply be expressed as a linear combination of the absorption spectra of the 2tThy/2tThd and 4tThd derivatives. […] Glycosylation of 2tThy, generating 2tThd, results in a 2 nm redshift in the absorption maximum and about 2-fold increase in the molar absorptivity coefficients (FIG. 1B). The same effect has been previously documented in the natural bases and in other thiobases. Therefore, glycosylation of 2,4dtThy to form 2,4-dithiothymidine is expected to redshift the absorption spectrum slightly and to increase the molar absorptivity coefficients.

[9] = aqueous phosphate-buffered saline solution, pH 7.4

Cc1cn([C@H]2C[C@H](O)[C@@H](CO)O2)c(=S)[nH]c1=O [2tThd, 2-thiothymidine]
ΦT triplet quantum yield [1]: 0.9 ± 0.1 | τISC intersystem crossing lifetime ([2]; pH 7.4 phosphate buffer solution, probe 600 nm): 410 ± 60 fs

Cc1c[nH]c(=S)[nH]c1=O [2tThy, 2-thiothymine]
ΦT triplet quantum yield [1]: 0.9 ± 0.1 | intersystem crossing rate increase relative to Thd [2]: 1.2 fold | ΦΔ singlet oxygen quantum yield [3]: 0.36 ± 0.02

O=c1cc[nH]c(=S)[nH]1 [2tUra, 2-thiouracil]
τISC intersystem crossing lifetime [4, 9]: 360 ± 30 fs | pKa [5]: 7.74

O=c1[nH]ccc(=S)[nH]1 [4tUra, 4-thiouracil]
ΦΔ singlet oxygen quantum yield ([6]; O2-saturated acetonitrile, 355 nm excitation, phenalenone standard): 0.49±0.02 | 1O2 yield relative to uracil ([6]; excited to lowest-energy absorption band): 3.3 fold | 1O2 yield ([6]; following UVA excitation): ca. 50% | τISC intersystem crossing lifetime [4, 9]: 240 ± 20 fs | κT triplet-state decay rate ([4]; aqueous phosphate-buffered saline solution, pH 7.4, 24 mM solutions, nitrogen-purged, 350 nm excitation): 1.7 ± 0.3 10^6 s^−1 | triplet-triplet extinction coefficient ([4]; at 600 nm, singlet depletion method): 3000 ± 600 M⁻¹ cm⁻¹ | photoreaction rate [7]: (0.39±0.04)×10^−9 M s^−1 | pKa [5]: 8.0

Cc1cn([C@H]2C[C@H](O)[C@@H](CO)O2)c(=O)[nH]c1=O [Thd, thymidine]
maximum of lowest-energy absorption band [8]: ~267 nm | ε at maximum of lowest-energy absorption band [8]: ≈ 9.9×10^3 M^−1 cm^−1 | ΦT triplet quantum yield [1]: 0.014 ± 0.001 | τISC intersystem crossing lifetime ([1]; recently reported value for thymidine): 760 fs | ΦΔ singlet oxygen quantum yield [3]: 0.07 ± 0.01
